Data published in PMC9481570, “A small molecule antagonist of SMN disrupts the interaction between SMN and RNAP II” (Nature Communications, 2022).

Test system: GEMIN1
Assay: AP-MS chemical proteomics, GEMIN1
Format: binding, human
Details: biotin-Cmpd 1 pulldown, competition with 200 μM compound 1 relative to DMSO, U2OS lysate
Description: The samples for AP-MS were prepared following pulldown procedure as previously described with minor modifications. Briefly, U2OS cells were lysed in RIPA buffer and the cell lysate was equally divided into two groups: (1) DMSO group (control group): the cell lysate was incubated with 20 μM biotin-labeled compound 1; (2) Cpmd 1 group (sample group): the cell lysate was incubated with 20 μM biotin-labeled compound 1 and 200 μM free compound 1. Each group contains three biological replicates. They were incubated overnight at 4 °C, then 30 μL streptavidin beads (Thermo Fisher, 20353) was added and incubated at 4 °C for 1 h. The beads were then washed with RIPA buffer for 3 times, 10 min/time. […]
Samples were analyzed by nanoLC-MS/MS (nanoRSLC, Thermo Fisher) using an Aurora series (Ion Opticks) reversed phase HPLC column (25 cm length × 75 µm inner diameter) and directly injected to an Orbitrap Eclipse (Thermo Fisher) using a 120 min gradient (mobile phase A = 0.1% formic acid, mobile phase B = 99.9% acetonitrile with 0.1% formic acid; hold 2% B for 5 min, 2–6% B in 0.1 min, 6–25% in 100 min, 25–50% in 15 min) at a flow rate of 350 nL/min. Eluted peptide ions were analyzed using a data-dependent acquisition (DDA) method with resolution settings of 120,000 and 15,000 (at m/z 200) for MS1 and MS2 scans, respectively. […]

Cn1c2c(c(=N)c3c1CCC3)CCC2 [Compound 1, 4-methyl-2,3,4,5,6,7-hexahydrodicyclopenta[b,e]pyridin-8(1H)-imine]
log2 FC (Cmpd 1/DMSO), GEMIN1: −6.9
